Values joined by “and” are separate entries in the source; they are usually repeats but may differ in a detail not shown here. Equal values may be shown once.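 These data come from cells grown in 96-well plates and exposed to compound for 48 hours at five concentrations. At the GI50, growth is halved. TGI marks complete inhibition of growth.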
Tests used:
Test in all cases: NCI anticancer screen, dose series, 48 h
OVCAR-5 ovarian = tested on: OVCAR-5 ovarian
TK-10 renal = tested on: TK-10 renal
MCF7 breast = tested on: MCF7 breast
SR leukemia = tested on: SR leukemia
HOP-62 NSCLC = tested on: HOP-62 NSCLC
MOLT-4 leukemia = tested on: MOLT-4 leukemia
SK-OV-3 ovarian = tested on: SK-OV-3 ovarian
HL-60(TB) leukemia = tested on: HL-60(TB) leukemia
K-562 leukemia = tested on: K-562 leukemia
OVCAR-4 ovarian = tested on: OVCAR-4 ovarian

| Structure (SMILES) | GI50 (OVCAR-5 ovarian) [µM] | TGI (OVCAR-5 ovarian) [µM] | GI50 (TK-10 renal) [µM] | TGI (TK-10 renal) [µM] | GI50 (MCF7 breast) [µM] | TGI (MCF7 breast) [µM] | GI50 (SR leukemia) [µM] | TGI (SR leukemia) [µM] | GI50 (HOP-62 NSCLC) [µM] | TGI (HOP-62 NSCLC) [µM] | GI50 (MOLT-4 leukemia) [µM] | TGI (MOLT-4 leukemia) | GI50 (SK-OV-3 ovarian) [µM] | TGI (SK-OV-3 ovarian) [µM] | GI50 (HL-60(TB) leukemia) [µM] | TGI (HL-60(TB) leukemia) | GI50 (K-562 leukemia) [µM] | TGI (K-562 leukemia) [µM] | GI50 (OVCAR-4 ovarian) [µM] | TGI (OVCAR-4 ovarian) [µM] |
| --- | --- | --- | --- | --- | --- | --- | --- | --- | --- | --- | --- | --- | --- | --- | --- | --- | --- | --- | --- | --- |
| CC(C)C[C@H](NC(=O)/C=C/Cn1ccc2ccccc2c1=O)B(O)O | 4.36 | 39.8 | 3.27 | 10.4 | 5.33 | > 100 | 0.887 | 21.8 | 4.9 | 25.9 | 2.73 | 12.5 µM | 10.5 | 92.2 | 2.95 | > 100 µM | 6 | > 100 | – | – |
| O=C(/C=C\c1ccc(NCc2ccc(C(=O)O)cc2)cc1)CCl | 17.8 | 34.5 | – | – | 4.26 | 17.7 | 3.33 | 10.9 | 15.5 | 29.6 | 4.45 | 26.4 µM | 15.1 | 28.8 | 14.8 | 36.7 µM | 3.36 | 14 | 13.9 | 26.9 |
| COc1cc(NC(C)CCCN)c2nccc(C)c2c1 (centres undefined) | – | > 100 | – | 63.5 | – | 33.2 | – | 53.1 | – | 34 | – | – | – | 58.5 | – | 21.1 µM | – | – | – | 59.9 |
| Cn1c2ccccc2c(=O)c2ccc(Cl)cc21 | – | – | – | > 10 | – | > 10 | – | > 10 | – | > 10 | – | > 10 µM | – | > 10 | – | > 10 µM | – | > 10 | – | > 10 |
| CCCCCCCCCCCCCCCCCCOc1ccccc1CC(=O)OCC[N+]1(C)CCCC1 | 2.02 | 5.31 | 1.52 | 3.08 | 2.11 | 4.76 | 2.47 | 6.92 | – | – | 2.12 | 4.95 µM | 18.9 | 38.8 | 2.1 | 5.07 µM | 2.81 | 10.5 | 2.94 | 12.1 |
| CC1=C(O)C(=O)C=C2C1=CC=C1[C@@]2(C)CC[C@@]2(C)[C@@H]3C[C@](C)(C(=O)O)CC[C@]3(C)CC[C@]12C | – | 0.332 | – | 0.0804 | – | 0.266 | – | 0.0336 | – | 0.963 | – | – | – | 1 | – | 0.0585 µM | – | 0.0617 | – | 0.174 |
| CCCSc1nc(COC(=O)NC)c(COC(=O)NC)n1C | – | > 100 | – | – | – | > 100 | – | > 100 | – | > 100 | – | 56.6 µM and > 70 µM | – | > 100 | – | 89.6 µM and > 100 µM | – | > 100 | – | > 100 |
